Drawing on ChEMBL document CHEMBL1128571, “Acylshikonin analogues: synthesis and inhibition of DNA topoisomerase-I” (J Med Chem, 1995), this text covers IC50 for 32 compounds.

This test has as its target T1, DNA topoisomerase 1 (Homo sapiens, UniProt P11387).
T1 sequence (P11387 whole entry): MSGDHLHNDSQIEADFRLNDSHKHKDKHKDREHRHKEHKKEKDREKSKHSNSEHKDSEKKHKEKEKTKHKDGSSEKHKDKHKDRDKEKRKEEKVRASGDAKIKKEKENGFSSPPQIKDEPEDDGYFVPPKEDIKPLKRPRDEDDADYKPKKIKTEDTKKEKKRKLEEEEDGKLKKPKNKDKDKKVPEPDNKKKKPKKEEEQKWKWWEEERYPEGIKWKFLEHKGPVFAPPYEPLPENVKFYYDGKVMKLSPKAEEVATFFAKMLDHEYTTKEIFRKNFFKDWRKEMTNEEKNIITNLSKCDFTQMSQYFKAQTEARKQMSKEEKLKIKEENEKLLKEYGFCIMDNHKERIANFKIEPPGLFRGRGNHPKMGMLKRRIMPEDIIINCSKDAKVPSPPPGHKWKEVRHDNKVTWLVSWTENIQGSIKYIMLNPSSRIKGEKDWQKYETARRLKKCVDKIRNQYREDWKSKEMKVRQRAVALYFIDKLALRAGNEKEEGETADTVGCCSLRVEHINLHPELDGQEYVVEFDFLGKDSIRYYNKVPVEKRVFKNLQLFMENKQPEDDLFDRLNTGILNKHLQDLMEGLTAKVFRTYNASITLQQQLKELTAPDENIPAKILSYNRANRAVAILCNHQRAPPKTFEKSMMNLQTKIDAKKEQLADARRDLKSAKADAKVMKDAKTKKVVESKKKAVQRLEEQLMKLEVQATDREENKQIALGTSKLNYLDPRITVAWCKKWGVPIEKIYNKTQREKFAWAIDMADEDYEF
As to the kind of experiment: Inhibitory activity against DNA topoisomerase-1 obtained from Hela cells. It is filed as cell-based.
On to `CCCCCC(=O)O[C@H](CC=C(C)C)C1=CC(=O)c2c(O)ccc(O)c2C1=O`, for which the midpoint of inhibition, the IC50, lay at 207 µM. The value for `CC(C)=CC[C@@H](OC(=O)C(Cl)(Cl)Cl)C1=CC(=O)c2c(O)ccc(O)c2C1=O` was 115 µM; that for `CCCC(=O)O[C@H](CC=C(C)C)C1=CC(=O)c2c(O)ccc(O)c2C1=O` was 144 µM; that for `CCCCCCCCCCCC(=O)O[C@H](CC=C(C)C)C1=CC(=O)c2c(O)ccc(O)c2C1=O` was greater than 625 µM.

For `C=CCCC(=O)O[C@H](CC=C(C)C)C1=CC(=O)c2c(O)ccc(O)c2C1=O`, the IC50 (in general, the midpoint of a concentration-inhibition curve) was found to be 40 µM.

As to `CCCCC/C=C/C/C=C/CCCCCCCC(=O)O[C@H](CC=C(C)C)C1=CC(=O)c2c(O)ccc(O)c2C1=O`, the IC50 was greater than 625 µM.

`CCCCCCCC(=O)O[C@H](CC=C(C)C)C1=CC(=O)c2c(O)ccc(O)c2C1=O` gave an IC50 greater than 625 µM.

Consider `CC(C)=CC[C@@H](OC(=O)\C=C(C)/C=C/C=C(C)/C=C/C1=C(C)CCCC1(C)C)C1=CC(=O)c2c(O)ccc(O)c2C1=O`, for which the IC50 is greater than 625 µM.

The compound `CC(C)=CC[C@@H](OC(=O)/C=C(C)/C=C/C=C(C)/C=C/C1=C(C)CCCC1(C)C)C1=CC(=O)c2c(O)ccc(O)c2C1=O` returned an IC50 greater than 625 µM. In the case of `CC(C)=CC[C@@H](OC(=O)C(c1ccccc1)c1ccccc1)C1=CC(=O)c2c(O)ccc(O)c2C1=O`, the IC50 was greater than 625 µM. On to `CC/C=C/C(=O)O[C@H](CC=C(C)C)C1=CC(=O)c2c(O)ccc(O)c2C1=O`, for which the IC50 was determined as 80 µM.

The compound `CC(C)=CC[C@@H](OC(=O)C(C)C)C1=CC(=O)c2c(O)ccc(O)c2C1=O` [ISOBUTYLSHIKONIN] showed an IC50 of 84 µM. `CCCCCCCC/C=C/CCCCCCCC(=O)O[C@H](CC=C(C)C)C1=CC(=O)c2c(O)ccc(O)c2C1=O` gave an IC50 greater than 625 µM. `CCCCCCCCCCCCCCCCCC(=O)O[C@H](CC=C(C)C)C1=CC(=O)c2c(O)ccc(O)c2C1=O`: the IC50 is greater than 625 µM. Compound `CCCCCCCCCC(=O)O[C@H](CC=C(C)C)C1=CC(=O)c2c(O)ccc(O)c2C1=O` gave an IC50 greater than 625 µM.

The compound `CC(C)=CC[C@@H](OC(=O)C=C(C)C)C1=CC(=O)c2c(O)ccc(O)c2C1=O` [DIMETHYLACRYLSHIKONIN] returned an IC50 of 77 µM. Consider `CCC/C=C/C(=O)O[C@H](CC=C(C)C)C1=CC(=O)c2c(O)ccc(O)c2C1=O`, for which the 50% inhibitory concentration (IC50) came out at 153 µM. In the case of `CC/C=C/CC(=O)O[C@H](CC=C(C)C)C1=CC(=O)c2c(O)ccc(O)c2C1=O`, the IC50 amounted to 153 µM. Compound `CCCCCCCCCCCCCCCC(=O)O[C@H](CC=C(C)C)C1=CC(=O)c2c(O)ccc(O)c2C1=O` returned an IC50 greater than 625 µM. Next, `CC(C)=CC[C@@H](OC(=O)c1ccccc1)C1=CC(=O)c2c(O)ccc(O)c2C1=O`: 153 µM; `CCCCC(=O)O[C@H](CC=C(C)C)C1=CC(=O)c2c(O)ccc(O)c2C1=O`: 161 µM; `CC(C)=CC[C@@H](OC(=O)Cc1ccccc1)C1=CC(=O)c2c(O)ccc(O)c2C1=O`: 222 µM. `C/C=C/C=C/C(=O)O[C@H](CC=C(C)C)C1=CC(=O)c2c(O)ccc(O)c2C1=O` displayed an IC50 of 130 µM.

`CC(C)=CC[C@@H](OC(=O)CCl)C1=CC(=O)c2c(O)ccc(O)c2C1=O`: the IC50 is 137 µM. The compound `CCC(=O)O[C@H](CC=C(C)C)C1=CC(=O)c2c(O)ccc(O)c2C1=O` registered an IC50 of 44 µM. Next, `C=CCCCCC(=O)O[C@H](CC=C(C)C)C1=CC(=O)c2c(O)ccc(O)c2C1=O`: 250 µM. `CCCCCCCCC(=O)O[C@H](CC=C(C)C)C1=CC(=O)c2c(O)ccc(O)c2C1=O` returned an IC50 greater than 625 µM. The value for `CCCCC/C=C/C/C=C/C/C=C/CCCCC(=O)O[C@H](CC=C(C)C)C1=CC(=O)c2c(O)ccc(O)c2C1=O` was greater than 625 µM. Turning to `CCCCCCC(=O)O[C@H](CC=C(C)C)C1=CC(=O)c2c(O)ccc(O)c2C1=O`, half-maximal inhibition (IC50) required 625 µM. Regarding `CC(=O)O[C@H](CC=C(C)C)C1=CC(=O)c2c(O)ccc(O)c2C1=O` [ACETYLSHIKONIN], it took 45 µM to reach half-maximal inhibition (IC50).

`CC(C)=CC[C@@H](O)C1=CC(=O)c2c(O)ccc(O)c2C1=O` [SHIKONIN] registered an IC50 of 208 µM. The value for `C=CCC/C=C/C(=O)O[C@H](CC=C(C)C)C1=CC(=O)c2c(O)ccc(O)c2C1=O` was 126 µM.
